Source: patent publication US5045548A, “Quinolyl methoxy compounds and their use as antiasthmatic agents” (Fujisawa Pharmaceutical Company, Ltd., priority 1987, dated 1991)
pIC50: −log10 of the molar value. Where a name gives a salt, the structure may show the parent alone.

Test system: SRS-A (Slow Reacting Substance of Anaphylaxis) synthesis in rat polymorpholeukocyte (PMN)
Assay: Inhibitory Activity of SRS-A synthesis in rat polymorpholeukocyte (PMN) using the calcium ionophore A23187 (i-LTC4 by radioimmunoassay)
Assay type: cell-based, rat (male Sprague-Dawley)
Conditions: 10 μM A23187, 15 min, 37° C., hydrochloride
Description: Test I: Inhibitory Activity of SRS-A (Slow Reacting Substance of Anaphylaxis) synthesis in rat polymorpholeukocyte (PMN) of using the calcium ionophore Male Sprague-Dawley rats weighing 250-300 g were anesthetized with ether and each was injected intraperitoneally with 20 ml of 0.1% clycogen (from Oyster). After 20 hours the rats were sacrificed and PMN were recovered in rinse of the peritoneal cavity with 10 ml Dulbeccos PBS (components in g/L: CaCl2 0.1, KH2 PO4 0.2, MgCl2.6H2 O 0.1, NaCl 8.0, Na2 HPO4.7H2 O 2.16; pH7.4). These rinses were filtered through nylon wool filter and centrifuged for 5 min at 1000 xg. The pellet was suspended in Dulbeccos PBS and centrifuged for 5 min at 1000 xg. The pellet was resuspended in Dulbeccos PBS and adjusted the cell concentration to 10^7 cells/ml with Dulbeccos PBS. Samples were dissolved in ethanol and dispersed in Dulbeccos PBS to give a concentration of 10^-10 -10^-5 M Antibiotic A23187; calcium ionophor ([…] Diagnostics) (hereinafter referred to A23187) in DMSO(10mM) was diluted with Dulbeccos PBS to give the concentration of 1 mM. Aliquots of the cell suspension (1×10^7 cells/ml, 0.98 ml) were equilibrated for 30 min at 37° C. Solution of sample(10 μl) was added and incubated for 15 min at 37° C. before the addition of 10 μl of A23187 solution. Thus the final incubation volume of 1 ml contained approximately 1×10^7 cells, 10^-10 -10^-5 M samples and 10 μM A23187. Incubation with A23187 were continued for 15 min at 37° C. The reactions were terminated by setting the assay tubes in ice bath to chill as rapidly as possible to 4° C. The test tubes were centrifuged at 1500 xg for 5 min at 4° C. and decanted the supernatants into the tubes and kept cold prior to assaying. The concentration of i-LTC4 in the cell-free supernatants from the incubations were determined by specific radioimmunoassay. The mean values of i-LTC4 (these incubations were carried out in duplicate) of each sample were calculated and the effect of samples on the synthesis of the leukotrienes was presented as a percentage of the value in the absence of samples.

Compound CCCCC1(CCCC)CCc2c(OCc3ccc4ccccc4n3)cccc2C1O (single isomer, unassigned; (+)) [Example 41, (+)-2,2-dibutyl-5-(2-quinolylmethoxy)-1,2,3,4-tetrahydro-1-naphthol hydrochloride] has a pIC50 of 8.25.

Same assay, conditions: Rattus norvegicus, 0.25 h, 10 μM A23187, 15 min, 37° C.

Going from CCCCC1(CCCC)CCc2c(OCc3ccc4ccccc4n3)ccc(Cl)c2C1O (stereo not drawn) [Example 33, 8-chloro-2,2-dibutyl-5-(2-quinolylmethoxy)-1,2,3,4-tetrahydro-1-naphthol] to CCCCC1(CCCC)CCc2c(OCc3ccc4ccccc4n3)ccc(O)c2C1O (stereo not drawn) [Example 36, 2,2-Dibutyl-8-hydroxy-5-(2-quinolylmethoxy)-1,2,3,4-tetrahydro-1-naphthol hydrochloride], the pIC50 falls from 7.85 to 6.92 (0.93 log units). The first is the more potent here.

First: CCCCC1CCc2c(OCc3ccc4ccccc4n3)cccc2C1=O (stereo not drawn) [Example 17, 2-Butyl-3,4-dihydro-5-(2-quinolylmethoxy)-1(2H)-naphthalenone]
Second: CCCCC1CCc2ccc(OCc3ccc4ccccc4n3)cc2C1=O (stereo not drawn) [Example 23, 2-Butyl-3,4-dihydro-7-(2-quinolylmethoxy)-1(2H)-naphthalenone hydrochloride]
The pIC50 of the first is 0.24 log units lower: 5.72 for the first, 5.96 for the second. The second is the more potent here.

Going from CCCCC1(CCCC)CCc2c(OCc3ccc4ccccc4n3)cccc2C1O (stereo not drawn) [Example 6, 2,2-dibutyl-5-(2-quinolylmethoxy)-1,2,3,4-tetrahydro-1-naphthol] to CCCCCC1(CCCCC)CCc2c(OCc3ccc4ccccc4n3)cccc2C1O (stereo not drawn) [Example 14, 2,2-Dipentyl-5-(2-quinolylmethoxy)-1,2,3,4-tetrahydro-1-naphthol], the pIC50 falls from 8.06 to 7.38 (0.68 log units). The first is the more potent here.

Going from CCCCC1(CCCC)Cc2c(OCc3ccc4ccccc4n3)cccc2C1=O [Example 5, 2,2-Dibutyl-4-(2-quinolylmethoxy)-1-indanone hydrochloride] to CCCCC1(CCCC)CCc2c(OCc3ccc4ccccc4n3)cccc2C1=O [Example 25, 2,2-Dibutyl-3,4-dihydro-5-(2-quinolylmethoxy)-(1(2H)-naphthalenone hydrochloride], the pIC50 falls from 6.55 to 6.21 (0.34 log units). The first is the more potent here.

CCCCC1(CCCC)CCc2ccc(OCc3ccc4ccccc4n3)cc2C1=O [Example 19, 2,2-Dibutyl-3,4-dihydro-7-(2-quinolylmethoxy)-1(2H)-naphthalenone] and CCCCC1(CCCC)CCc2ccc(OCc3ccc4ccccc4n3)cc2C1O (stereo not drawn) [Example 22, 2,2-Dibutyl-7-(2-quinolylmethoxy)-1,2,3,4-tetrahydro-1-naphthol hydrochloride] are within 0.2 log units of each other in pIC50: 5.96 for the first, 6.07 for the second.

CCCCC1(CCCC)CCc2c(OCc3ccncc3)cccc2C1O (stereo not drawn) [Example 12, 2,2-Dibutyl-5-(4-pyridylmethoxy)-1,2,3,4-tetrahydro-1-naphthol] and CCCCC1(CCCC)CCc2c(OCc3ccccn3)cccc2C1O (stereo not drawn) [Example 7, 2,2-dibutyl-5-(2-pyridylmethoxy)-1,2,3,4-tetrahydro-1-naphthol] are within 0.2 log units of each other in pIC50: 6.92 for the first, 7.09 for the second.

Going from CCCCC1(CCCC)CCc2c(OCc3nc4ccccc4s3)cccc2C1O (stereo not drawn) [Example 11, 2,2-Dibutyl-5-(2-benzothiazolylmethoxy)-1,2,3,4-tetrahydro-1-naphthol] to CCCCC1(CCCC)CCc2c(OCc3nc4ccccc4n3C)cccc2C1O (stereo not drawn) [Example 26, 2,2-Dibutyl-5-[2-(1-methylbenzimidazolyl)methoxy]-1,2,3,4-tetrahydro-1-naphthol], the pIC50 falls from 7.30 to 6.68 (0.62 log units).

First: CCCCC1(CCCC)CCc2c(OCc3ccc4ccccc4n3)ccc(C)c2C1=O [Example 39]
Second: CCCCC1(CCCC)CCc2c(OCc3ccc4ccccc4n3)ccc(O)c2C1=O [Example 38, 2,2-Dibutyl-3,4-dihydro-8-hydroxy-5-(2-quinolylmethoxy)-1(2H)-naphthalenonehydrochloride]
The pIC50 of the first is 0.25 log units lower: 6.19 for the first, 6.44 for the second.

First: CCCC1(CCC)CCc2c(OCc3ccc4ccccc4n3)cccc2C1O (stereo not drawn) [Example 13, 2,2-Dipropyl-5-(2-quinolylmethoxy)-1,2,3,4-tetrahydro-1-naphthol]
Second: CCCCC1(CCCC)Cc2c(OCc3ccc4ccccc4n3)cccc2C1O (stereo not drawn) [Example 15, 2,2-Dibutyl-4-(2-quinolylmethoxy)-1-indanol]
The pIC50 of the first is 1.14 log units higher: 7.82 for the first, 6.68 for the second.

First: CC(C)CC1(CC(C)C)CCc2c(OCc3ccc4ccccc4n3)cccc2C1O (stereo not drawn) [Example 37, 2,2-Diisobutyl-5-(2-quinolylmethoxy)-1,2,3,4-tetrahydro-1-naphthol]
Second: CCCCC1CCc2c(OCc3ccc4ccccc4n3)cccc2C1O (stereo not drawn) [Example 20, 2-Butyl-5-(2-quinolylmethoxy)-1,2,3,4-tetrahydro-1-naphthol]
The pIC50 of the first is 1.52 log units higher: 8.60 for the first, 7.08 for the second. The first is the more potent here.

Compared with CCCCC1(CCCC)CCc2c(OCc3ccc4ccccc4n3)ccc(C)c2C1O (stereo not drawn) [Example 35, 2,2-Dibutyl-8-methyl-5-(2-quinolylmethoxy)-1,2,3,4-tetrahydro-1-naphthol], CCCCC1(CCCC)CCc2c(OCc3ccc4ccccc4n3)ccc(F)c2C1O (stereo not drawn) [Example 34, 2,2-Dibutyl-8-fluoro-5-(2-quinolylmethoxy)-1,2,3,4-tetrahydro-1-naphthol] is 0.47 log units higher in pIC50: 8.19 for the first, 8.66 for the second.

Going from CCCCC1(CCCC)CCc2c(OCC3=C(C)C(=O)c4ccccc4C3=O)cccc2C1O (stereo not drawn) [Example 27, 2,2-Dibutyl-5-[2-(3-methyl-1,4-naphthalenedionyl)methoxy]-1,2,3,4-tetrahydro-1-naphthol] to CCCCC1(CCCC)CCc2c(OCc3ccccc3C(N)=O)cccc2C1O (stereo not drawn) [Example 8, 2,2-dibutyl-5-(2-carbamoylbenzyloxy)-1,2,3,4-tetrahydro-1-naphthol], the pIC50 rises from 6.52 to 6.80 (0.28 log units). The second is the more potent here.

CCCCC1CCc2ccc(OCc3ccc4ccccc4n3)cc2C1O (stereo not drawn) [Example 21, 2-butyl-7-(2-quinolylmethoxy)-1,2,3,4-tetrahydro-1-naphthol hydrochloride] and CCCCC1(CCCC)CCc2c(OCc3ccc(C(N)=O)cc3)cccc2C1O (stereo not drawn) [Example 16, 2,2-Dibutyl-5-(4-carbamoylbenzyloxy)-1,2,3,4-tetrahydro-1-naphthol] are within 0.2 log units of each other in pIC50: 6.37 for the first, 6.43 for the second.
